# Assay results from ChEMBL document CHEMBL1135181, “Synthesis and anti-influenza virus activity of 7-O-alkylated derivatives related to zanamivir” (Bioorg Med Chem Lett, 2002).
# pIC50: −log10 of the molar value.
# Legend:
# Influenza A virus [1] = assay: In vitro antiviral activity against Influenza A.; assay type: functional, organism-based
# [2] = biological target: Neuraminidase (Influenza A virus (A/Puerto Rico/8/1934(H1N1)), UniProt P03468); assay: Inhibition of influenza A sialidase in vitro.
# Sequence of Neuraminidase (Influenza A virus (A/Puerto Rico/8/1934(H1N1)), UniProt P03468) (P03468 whole entry): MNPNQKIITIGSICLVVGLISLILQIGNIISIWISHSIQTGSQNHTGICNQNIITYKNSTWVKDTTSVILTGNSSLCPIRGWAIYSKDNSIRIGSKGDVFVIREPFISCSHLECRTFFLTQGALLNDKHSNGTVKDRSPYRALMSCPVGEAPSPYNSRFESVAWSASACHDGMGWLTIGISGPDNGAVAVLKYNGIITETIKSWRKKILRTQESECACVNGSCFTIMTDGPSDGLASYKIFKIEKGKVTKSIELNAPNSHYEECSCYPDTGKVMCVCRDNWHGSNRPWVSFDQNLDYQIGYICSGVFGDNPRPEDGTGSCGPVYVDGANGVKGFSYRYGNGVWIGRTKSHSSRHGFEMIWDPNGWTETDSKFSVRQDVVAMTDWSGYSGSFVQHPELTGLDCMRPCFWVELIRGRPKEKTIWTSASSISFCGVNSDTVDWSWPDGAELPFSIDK
# Influenza A virus [3] = assay: Inhibitory concentration by Plaque reduction assay; range-1.9-12; assay type: functional, organism-based
# Influenza A virus [4] = assay: Inhibitory concentration by Plaque reduction assay; range-1.9-20; assay type: functional, organism-based
Structure (SMILES),IC50 (Influenza A virus [1]) [ng/mL],pIC50 [2],IC50 (Influenza A virus [3]) [ng/mL],IC50 (Influenza A virus [4]) [ng/mL]
CC(=O)N[C@H]1[C@H]([C@H](OCC2CCCCC2)[C@H](O)CO)OC(C(=O)O)=C[C@@H]1NC(=N)N.O=C(O)C(F)(F)F,3,7.17,,
CCO[C@H](CC)[C@@H]1OC(C(=O)O)=C[C@H](N=C(N)N)[C@H]1NC(C)=O.O=C(O)C(F)(F)F,16,7.10,,
CCCCCCCCCCCCO[C@@H]([C@@H]1OC(C(=O)O)=C[C@H](N=C(N)N)[C@H]1NC(C)=O)[C@H](O)CO.O=C(O)C(F)(F)F,2.2,7.09,,
CCCO[C@@H]([C@@H]1OC(C(=O)O)=C[C@H](N=C(N)N)[C@H]1NC(C)=O)[C@H](O)CO.O=C(O)C(F)(F)F,1.5,7.20,,
CCCO[C@H](CC)[C@@H]1OC(C(=O)O)=C[C@H](N=C(N)N)[C@H]1NC(C)=O.O=C(O)C(F)(F)F,9,7.51,,
CCCCCCCCCCCCO[C@H](CC)[C@@H]1OC(C(=O)O)=C[C@H](N=C(N)N)[C@H]1NC(C)=O.O=C(O)C(F)(F)F,> 50,7.31,,
CC(=O)NCCO[C@@H]([C@@H]1OC(C(=O)O)=C[C@H](N=C(N)N)[C@H]1NC(C)=O)[C@H](O)CO.O=C(O)C(F)(F)F,2.4,7.73,,
CCCCCCCCO[C@H](CC)[C@@H]1OC(C(=O)O)=C[C@H](N=C(N)N)[C@H]1NC(C)=O.O=C(O)C(F)(F)F,40,7.50,,
CCO[C@@H]([C@@H]1OC(C(=O)O)=C[C@H](N=C(N)N)[C@H]1NC(C)=O)[C@H](O)CO,,7.25,,
CC(=O)N[C@H]1[C@H]([C@H](OCCN)[C@H](O)CO)OC(C(=O)O)=C[C@@H]1NC(=N)N.O=C(O)C(F)(F)F,7.5,7.01,,
CCCCCO[C@H](CC)[C@@H]1OC(C(=O)O)=C[C@H](N=C(N)N)[C@H]1NC(C)=O.O=C(O)C(F)(F)F,3.8,7.73,,
CCCCCCCCCCCCCCO[C@@H]([C@@H]1OC(C(=O)O)=C[C@H](N=C(N)N)[C@H]1NC(C)=O)[C@H](O)CO.O=C(O)C(F)(F)F,11,6.39,,
CC(=O)N[C@H]1[C@H]([C@H](OCCO)[C@H](O)CO)OC(C(=O)O)=C[C@@H]1NC(=N)N.O=C(O)C(F)(F)F,1.8,7.68,,
CC(=O)N[C@H]1[C@H]([C@H](OCCC2CCCCC2)[C@H](O)CO)OC(C(=O)O)=C[C@@H]1NC(=N)N.O=C(O)C(F)(F)F,1.9,7.33,,
CCCCCCCCO[C@@H]([C@@H]1OC(C(=O)O)=C[C@H](N=C(N)N)[C@H]1NC(C)=O)[C@H](O)CO.O=C(O)C(F)(F)F,1.8,7.44,,
CCCCCO[C@@H]([C@@H]1OC(C(=O)O)=C[C@H](N=C(N)N)[C@H]1NC(C)=O)[C@H](O)CO.O=C(O)C(F)(F)F,2,7.56,,
CC(=O)N[C@H]1[C@H]([C@H](OCCN=[N+]=[N-])[C@H](O)CO)OC(C(=O)O)=C[C@@H]1NC(=N)N.O=C(O)C(F)(F)F,1.5,7.54,,
CC(=O)N[C@H]1[C@H]([C@H](O)[C@H](O)CO)OC(C(=O)O)=C[C@@H]1NC(=N)N.O=C(O)C(F)(F)F [ZANAMIVIR TFA],,,1.9,1.9
